According to patent US20170080063A1, “HIGHLY SOLUBLE AQUAPORIN-4 EXTRACELLULAR LOOP C PEPTIDE IMMUNIZATION FOR TREATMENT OF NEUROMYELITIS OPTICA” (THE JOHNS HOPKINS UNIVERSITY, priority 2014, published 2017):
“Also recorded” adds a separate entry of the source.

Columns and labels:
mice = experiment: Neurological symptoms / clinical phenotype in mice given peptide; assay type: in vivo, mouse; conditions: for neurological symptoms (paralysis from spinal cord inflammation, visual impairment from optic nerve inflammation): mice administered the peptide; for clinical phenotype / autoimmune neurological disease after immunization: immunized AQP4 null mice
AQP4 null mice = experiment: Antibody production against AQP4 extracellular loop peptides after immunization; assay type: in vivo, mouse; conditions: AQP4 null mice immunized with the peptides
T cells = experiment: T cell proliferation assay (3H-thymidine incorporation) with spleen cells of immunized mice; assay type: cell-based, mouse; conditions: for T cell response against the peptide: T cells from AQP4 null mice immunized with AQP4 loop peptides
[1] = test system: IL-17 and interferon-gamma (IFN-γ) cytokine-producing cells; experiment: ELISPOT assay of cytokine-producing cells; assay type: cell-based, mouse
Experimental: ELISPOT assay was used to determine the frequency of cytokine-producing cells in polarized and unpolarized cell cultures. The day before cells were to be harvested from immunized AQP4 null mice, the wells of an immobilon P-bottom 96-well plates (Multiscreen®HTS, 0.45 μm pore size; EMB Millipore, USA) were pre-wet with 35% ethanol for 30 seconds, washed three times with coating buffer, and coated with 50 μl of a 1:250 dilution of capture antibody, anti-IL17 (Th17), provided with ELISPOT Ready-Set-Go kits (eBioscience). Plates were covered and incubated overnight at 4° C. Wells were then washed twice with coating buffer and once with complete media; plates were stored in the incubator until cells were prepared. Spleen and lymph node cells were prepared as described above and prepared with and without polarizing conditions. Harvested cells were 2-fold serially diluted in media containing 3×10^7 irradiated splenocytes (irradiated with 3,500 rads) as antigen-presenting cells (APCs); APCs mixed 12:1 with 1.25×10^5 lymph node cells per well yielded the most well-defined spots. After overnight in culture, wells were washed (TBS+0.05% Tween®-20). Detection antibody was diluted 1:250 in diluents provided in the kit and 50 μl applied to each well for 2 hours at RT. After washing, streptavidin-alkaline phosphatase was added to each well (1:2500; Sigma) for 45 minutes. After further washing, signal was developed with development solution containing BCIP and NBT (i.e. 150 mM Tris-HCl, 5 mM MgCl2, 100 mM NaCl, pH9.5 supplemented with 4 mM levamisole (Sigma), 0.15 mg/ml 5-bromo-4-chloro-3-indolyl-phosphate, and 0.36 mg/ml 4-nitro blue tetrazolium chloride (Roche) for 10 minutes at room temperature in the dark. Reaction was stopped by washing with PBS then distilled H2O before air drying. Spots were imaged with an Immunospot Series 3 Analyzer (Cellular Technology, Ltd.) and counted using Image J and the “find Maxima” function. Results are expressed as the mean of triplicate values (±standard error of the mean, SEM) adjusted to per 10^6 cells per well. Student's t-test was performed on data; p<0.05 was considered statistically significant.

[2] = after polarization to Th17 phenotype, exposed to peptide
[3] = after polarization to Th17 phenotype, exposed to peptide, listed as AQP4135-53
[4] = unpolarized cell culture exposed to peptide, versus no stimulation
[5] = unpolarized cell culture exposed to peptide, versus no stimulation, listed as AQP4135-53

Row | Substance | neurological symptoms (paralysis from spinal cord inflammation, visual impairment from optic nerve inflammation) (mice) | antibody production against the loop peptide (AQP4 null mice) | clinical phenotype / autoimmune neurological disease after immunization (mice) | T cell response against the peptide (T cells) | further results
1 | GILYLVTPPSVVGGLGVTMV [SEQ ID NO: 9, reference compound] | no such neurological symptoms |  |  |  | 
2 | GNWENH (listed as Homo sapiens) [loop E, AQP4 extracellular loop E peptide (human 212-30 used)] |  | no evidence of antibody production |  |  | 
3 | GTEKPLPV (listed as Homo sapiens) [loop A, AQP4 extracellular loop A peptide (human 56-69 used)] |  | no evidence of antibody production |  |  | 
4 | LVTPPSVVGGLGVTMVHGN [SEQ ID NO: 8] | development of phenotypes | no evidence of antibody production | did not develop autoimmune neurological disease | remarkable T cell response; also recorded: robust T cell response; also recorded: robust reaction | number of IFN-γ producing cells [1, 2]: barely detectable; number of IL-17 producing cells [1, 2]: doubled; number of IFN-γ producing cells [1, 3]: nearly undetectable; number of IL-17 producing cells [1, 3]: almost doubled; number of IFN-γ producing cells [1, 4]: significant number; number of IL-17 producing cells [1, 4]: significant number; number of IFN-γ producing cells [1, 5]: significant levels; number of IL-17 producing cells [1, 5]: significant levels
5 | MOG peptide 35-55: myelin-oligodendrocyte glycoprotein (MOG) peptide 35-55 (MEVGWYRSPFSRVVHLYRNGK; UniProt Q61885 63-83, looked up, fragment) [reference compound] |  |  |  |  | T cell proliferative activity (incorporation of tritiated-thymidine) (T cells; T cells from control wildtype mice (wt-MOG) immunized with MOG peptide 35-55): showed proliferative activity
6 | TPPSVVGGLGVTMVHGNLTAG (listed as Homo sapiens) [loop C, peptide corresponding to the second extracellular loop of AQP4] |  | No evidence of antibody production | no clinical phenotype | robust T cell response | T cell response against the peptide (T cells; listed as loop C peptide): robust T cell response; also recorded: stimulated a T cell response
